Tests used:
[1] = test system: B. subtilis 168; assay: fitness (endpoint OD595 vs no drug) (fraction); higher = more growth
How it was run: (§1)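 Volumes were 30 µl per well, or 55 µl for S. pneumoniae, in 384-well plates inoculated at OD595 0.01. Media were TSB, LB Lennox or CY at 37 °C, and OD595 was read every 30 min for 14 h with first-reading background subtraction. Fitness is the ratio of optical density at stationary-phase entry to the robust mean of no-drug controls. That ratio is capped at 1.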

[2] = test system: S. pneumoniae D39V; assay: as above
How it was run: as §1

[3] = test system: S. aureus DSM 20231; assay: Bliss interaction score (quartile over a dose matrix) (fitness difference); higher = more antagonism (negative = synergy)
How it was run: (§2)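 Each plate was normalised to the robust mean of its own no-drug wells, using OD595 at entry into stationary phase, with values capped at 1. This normalised growth is the fitness value. The Bliss score is the difference between observed and product-expected fitness, with single-drug fitness inferred from the combination data and quartiles taken over technical, biological and donor/recipient replicates.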

[4] = test system: B. subtilis 168; assay: as above
How it was run: as §2

[5] = test system: S. pneumoniae D39V; assay: as above
How it was run: as §2

[6] = test system: S. aureus Newman; assay: as above
How it was run: as §2
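Throughout, for Bliss interaction score (quartile over a dose matrix): first quartile when negative (synergy) and third quartile when positive (antagonism).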

C[C@H]1c2cccc(O)c2C(=O)C2=C(O)[C@]3(O)C(=O)C(C(N)=O)=C(O)[C@@H](N(C)C)[C@@H]3[C@@H](O)[C@@H]21 [Doxycycline] + CC1=C\[C@@H](O)CC(=O)Cc2nc(co2)C(=O)N2CCC=C2C(=O)O[C@H](C(C)C)[C@H](C)/C=C/C(=O)NC\C=C\1 [Virginiamycin M1]
fitness
Conditions	first compound 0.0155 µg/mL	first compound 0.02 µg/mL	first compound 0.031 µg/mL	first compound 0.04 µg/mL	first compound 0.062 µg/mL	first compound 0.08 µg/mL
[1], partner 0.0625 µg/mL	–	0.898	–	0.805	–	0.572
[1], partner 0.125 µg/mL	–	0.899	–	0.726	–	0.458
[1], partner 0.25 µg/mL	–	0.936	–	0.806	–	0.491
[2], partner 0.5 µg/mL	0.968	–	0.902	–	0.813	–
[2], partner 1 µg/mL	0.998	–	0.847	–	0.831	–
[2], partner 2 µg/mL	0.904	–	0.794	–	0.758	–

[2], one replicate
Conditions	fitness
first compound 0.003875 µg/mL, partner 0.5 µg/mL	≥ 1
first compound 0.003875 µg/mL, partner 1 µg/mL	≥ 1
first compound 0.003875 µg/mL, partner 2 µg/mL	≥ 1
first compound 0.00775 µg/mL, partner 0.5 µg/mL	0.995
first compound 0.00775 µg/mL, partner 1 µg/mL	≥ 1
first compound 0.00775 µg/mL, partner 2 µg/mL	≥ 1
first compound 0.0155 µg/mL, partner 0.15 µg/mL	0.887
first compound 0.0155 µg/mL, partner 0.3 µg/mL	0.823
first compound 0.031 µg/mL, partner 0.15 µg/mL	0.878
first compound 0.031 µg/mL, partner 0.3 µg/mL	0.819
first compound 0.062 µg/mL, partner 0.15 µg/mL	0.793
first compound 0.062 µg/mL, partner 0.3 µg/mL	0.762

Conditions	Bliss interaction score
[3]	-0.151
[4]	0.0353
[5]	0.0434
[6]	-0.0791

COc1cccc2c1C(=O)c1c(O)c3c(c(O)c1C2=O)C[C@@](O)(C(=O)CO)C[C@@H]3O[C@H]1C[C@H](N)[C@H](O)[C@H](C)O1 [Doxorubicin] + CCC(C)C1C(=O)NC(=C)C(=O)NC(C(=O)NC(CSCC(C(=O)N1)NC(=O)/C(=C/C)/NC(=O)C(C(C)CC)N)C(=O)NC2C(SCC(NC(=O)CNC(=O)C3CCCN3C2=O)C(=O)NC(CCCCN)C(=O)NC4C(SCC(NC(=O)CNC(=O)C(NC(=O)C(NC(=O)C(NC(=O)CNC4=O)C)CC(C)C)CCSC)C(=O)NC(CC(=O)N)C(=O)NC(CCSC)C(=O)NC(CCCCN)C(=O)NC5C(SCC6C(=O)NC(C(=O)NC(CSC(C(C(=O)N6)NC(=O)C(NC5=O)C)C)C(=O)NC(CO)C(=O)NC(C(C)CC)C(=O)NC(CC7=CN=CN7)C(=O)NC(C(C)C)C(=O)NC(=C)C(=O)NC(CCCCN)C(=O)O)CC8=CN=CN8)C)C)C)CC(C)C [Nisin]
main component drawn
Conditions	fitness
[1], first compound 0.625 µg/mL, partner 0.5 µg/mL	0.882
[1], first compound 0.625 µg/mL, partner 1 µg/mL	0.852
[1], first compound 0.625 µg/mL, partner 2 µg/mL	0.459
[1], first compound 1.25 µg/mL, partner 0.5 µg/mL	0.821
[1], first compound 1.25 µg/mL, partner 1 µg/mL	0.83
[1], first compound 1.25 µg/mL, partner 2 µg/mL	0.567
[1], first compound 2.5 µg/mL, partner 0.5 µg/mL	0.688
[1], first compound 2.5 µg/mL, partner 1 µg/mL	0.603
[1], first compound 2.5 µg/mL, partner 2 µg/mL	0.19
[2], first compound 0.25 µg/mL, partner 0.4275 µg/mL	0.998
[2], first compound 0.25 µg/mL, partner 0.855 µg/mL	0.991
[2], first compound 0.25 µg/mL, partner 1.6 µg/mL	0.0164
[2], first compound 0.25 µg/mL, partner 1.71 µg/mL	0.0746
[2], first compound 0.25 µg/mL, partner 3.2 µg/mL	0.0268
[2], first compound 0.25 µg/mL, partner 6.4 µg/mL	0.0249
[2], first compound 0.5 µg/mL, partner 0.4275 µg/mL	0.977
[2], first compound 0.5 µg/mL, partner 0.855 µg/mL	0.91
[2], first compound 0.5 µg/mL, partner 1.6 µg/mL	0.0215
[2], first compound 0.5 µg/mL, partner 1.71 µg/mL	0.0797
[2], first compound 0.5 µg/mL, partner 3.2 µg/mL	0.0424
[2], first compound 0.5 µg/mL, partner 6.4 µg/mL	0.039
[2], first compound 1 µg/mL, partner 0.4275 µg/mL	0.844
[2], first compound 1 µg/mL, partner 1.6 µg/mL	0.0081
[2], first compound 1 µg/mL, partner 1.71 µg/mL	0.065
[2], first compound 1 µg/mL, partner 3.2 µg/mL	0.0126
[2], first compound 1 µg/mL, partner 6.4 µg/mL	0.0281

fitness, [1], one replicate, main component drawn
Conditions	partner 1.25 µg/mL	partner 1.6 µg/mL	partner 2.5 µg/mL	partner 3.2 µg/mL	partner 4 µg/mL	partner 5 µg/mL	partner 6.4 µg/mL	partner 8 µg/mL	partner 16 µg/mL
first compound 0.625 µg/mL	≥ 1	0.646	0.612	0.0265	0.0271	0.0205	0.0251	0.0074	0.0185
first compound 1.25 µg/mL	0.996	0.742	0.659	0.0085	0.0489	0.0315	0.0249	0.0463	0.0265
first compound 2.5 µg/mL	0.888	0.178	0.451	0.0274	0.0327	0.0219	0.0137	0.0311	0.0578

main component drawn
Conditions	Bliss interaction score
[3]	0.0625
[4]	0.0614
[5]	-0.0536
[6]	-0.0646

CO/N=C(\C(=O)N[C@@H]1C(=O)N2C(C(=O)O)=C(COC(C)=O)CS[C@H]12)c1csc(N)n1 [Cefotaxime] + C[C@H]1c2cccc(O)c2C(=O)C2=C(O)[C@]3(O)C(=O)C(C(N)=O)=C(O)[C@@H](N(C)C)[C@@H]3[C@@H](O)[C@@H]21 [Doxycycline]
fitness, one replicate
Conditions	first compound 0.0018 µg/mL	first compound 0.0035 µg/mL	first compound 0.007 µg/mL	first compound 0.00775 µg/mL	first compound 0.0155 µg/mL	first compound 0.031 µg/mL	first compound 0.0625 µg/mL	first compound 0.125 µg/mL	first compound 0.25 µg/mL
[1], partner 0.02 µg/mL	–	–	–	0.855	0.698	0.508	0.608	0.538	0.467
[1], partner 0.04 µg/mL	–	–	–	0.665	0.523	0.377	0.511	0.366	0.304
[1], partner 0.08 µg/mL	–	–	–	0.278	0.0446	0.0311	0.343	0.209	0.252
[2], partner 0.003875 µg/mL	≥ 1	≥ 1	0.866	–	–	–	–	–	–
[2], partner 0.00775 µg/mL	≥ 1	0.974	0.888	–	–	–	–	–	–

fitness
Conditions	first compound 0.0018 µg/mL	first compound 0.0035 µg/mL	first compound 0.007 µg/mL	first compound 0.5 µg/mL	first compound 1 µg/mL	first compound 2 µg/mL
[1], partner 0.02 µg/mL	–	–	–	0.288	0.198	0.157
[1], partner 0.04 µg/mL	–	–	–	0.204	0.086	0.0899
[1], partner 0.08 µg/mL	–	–	–	0.0692	0.0318	0.0723
[2], partner 0.0155 µg/mL	0.955	0.943	0.864	–	–	–
[2], partner 0.031 µg/mL	0.814	0.801	0.794	–	–	–

Conditions	Bliss interaction score
[3]	0.141
[4]	0.0737
[5]	0.0963
[6]	0.0304

Reference: the supplement of paper PMC10627819
